Test results reported in US8105993B2, “Process compositions and production of acyl alkylisethionate compositions” (Huntsman Petrochemical LLC, priority 2006, dated 2012).

Tests used:
Zein = Zein irritation score (in vitro mildness); details: the lower the score, the more mild
Experimental: To evaluate the mildness of the products of the present invention, Zein scores were determined for a variety of sulfate and isethionate surfactants and their scores are reported in Table III:
The lower the Zein score, the more mild the composition.

[1] = Foaming test, one-liter capped rotating measuring cylinder foam machine; format: physicochemical; details: FIGS. 1A and 1B; 0.5% active of surfactant; compared with SLES or SLS based cleansers
Experimental: Foaming tests were performed using a one-liter capped rotating measuring cylinder foam machine at a rate of 30 revolutions per minute and ambient temperature ranging from about 20° C. to about 22° C. and at a concentration of 0.5% of total surfactants. Foam heights in the graduated cylinder were measured at the start and at 10 minutes of rotation. The results are shown below in Table I:
A second foaming test was performed using the same parameters as above, but a stripped coco fatty acid chain SCMI was tested in place of a whole coco fatty acid chain SCMI.

[2] = levels of 10% by weight; cited from earlier work

Row | Molecule | Zein Score (Zein) [mg N/100 ml solution] | foam appearance [1] | skin and eye irritancy [2]
1 | Sodium Cocoyl Ethyl Isethionate | 104 |  | 
2 | CCCCCCCCCCCCOS(=O)(=O)[O-].[Na+] [Sodium Lauryl Sulfate, sodium lauryl sulfate, reference compound] | 527 |  | 
3 | sodium cocoyl methyl isethionate | 147 | tighter and creamier | 
4 | CCCCCCCCCCCC(=O)OC(C)CS(=O)(=O)[O-].[Na+] (centres unmarked) [Sodium Lauroyl Methyl Isethionate] | 134 |  | 
5 | sodium cocoyl isethionate [reference compound] | 254 |  | non-skin irritant and eye irritant
6 | Sodium Lauroyl Ethyl Isethionate | 187 |  | 
